“And” between values parts separate entries of the source, which are not always exact repeats. Equal entries are not always repeated.
Molecular target: purified PARP protein (Homo sapiens, UniProt P09874)
Assay: PARP enzyme inhibition assay
Type: biochemical
Conditions: 20 nM purified PARP (5 nM for tight-binding inhibitors), 500 μM NAD+, 25° C.; several values in one cell = repeat determinations; read-out: Inhibition Constant Ki

Chain of purified PARP protein (P09874 whole entry): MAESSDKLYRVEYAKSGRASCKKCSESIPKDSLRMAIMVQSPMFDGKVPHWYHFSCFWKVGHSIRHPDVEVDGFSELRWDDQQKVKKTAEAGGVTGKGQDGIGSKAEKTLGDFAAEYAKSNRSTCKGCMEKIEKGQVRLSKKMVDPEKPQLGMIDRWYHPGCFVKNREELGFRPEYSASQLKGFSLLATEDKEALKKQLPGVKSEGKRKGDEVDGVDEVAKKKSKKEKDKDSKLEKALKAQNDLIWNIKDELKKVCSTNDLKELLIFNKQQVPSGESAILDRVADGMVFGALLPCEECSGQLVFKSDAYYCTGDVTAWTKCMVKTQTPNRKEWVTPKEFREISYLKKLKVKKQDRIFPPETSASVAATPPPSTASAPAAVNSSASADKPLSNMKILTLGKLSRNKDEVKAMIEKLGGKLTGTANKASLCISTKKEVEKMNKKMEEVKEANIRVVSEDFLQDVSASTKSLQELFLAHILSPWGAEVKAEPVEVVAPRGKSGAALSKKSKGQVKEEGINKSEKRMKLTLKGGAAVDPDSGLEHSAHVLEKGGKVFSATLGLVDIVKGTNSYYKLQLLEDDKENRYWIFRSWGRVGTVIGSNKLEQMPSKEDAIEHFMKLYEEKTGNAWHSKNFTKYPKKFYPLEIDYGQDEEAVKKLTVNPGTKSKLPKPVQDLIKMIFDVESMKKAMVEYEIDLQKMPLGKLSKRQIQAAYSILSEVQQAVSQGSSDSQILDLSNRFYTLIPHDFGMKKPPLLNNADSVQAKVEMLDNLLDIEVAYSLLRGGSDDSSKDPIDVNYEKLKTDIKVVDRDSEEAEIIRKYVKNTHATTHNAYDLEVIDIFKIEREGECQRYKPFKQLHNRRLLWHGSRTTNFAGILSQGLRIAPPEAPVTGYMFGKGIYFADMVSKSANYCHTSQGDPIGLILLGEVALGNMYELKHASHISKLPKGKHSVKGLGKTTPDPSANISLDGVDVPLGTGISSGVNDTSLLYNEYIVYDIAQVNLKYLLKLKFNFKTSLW

Row | Ki | SMILES
1 | 2 nM and 2.3 nM and 3.5 nM | CNCc1ccc(-c2nc3cccc4c3n2C[C@H](C)NC4=O)cc1 [Example 222, (S)-8-Methyl-1-(4-methylaminomethyl-phenyl)-8,9-dihydro-7H-2,7,9a-triaza-benzo[cd]azulen-6-one]
2 | 2.2 nM | N#Cc1ccc(-c2nc3cccc4c3n2CCNC4=O)cc1 [Example 227, 4-(6-oxo-6,7,8,9-Tetrahydro-2,7,9a-triaza-benzo[cd]azulen-1-y)-benzonitrile]
3 | 4.6 nM | CC(C)CC(O)c1ccc(-c2nc3cccc4c3n2CCNC4=O)cc1 (centres unmarked) [Example 228, 1-[4-(1-Hydroxy-3-methyl-butyl)-phenyl]-8,9-dihydro-7H-2,7,9a-triaza-benzo[cd]azulen-6-one]
4 | 5.3 nM and 6.8 nM | CC(C)CC(c1ccc(-c2nc3cccc4c3n2CCNC4=O)cc1)N1CC=CC1 (centres unmarked) [Example 229, 1-{4-[1-(2,5-Dihydro-pyrrol-1-yl)-3-methyl-butyl]-phenyl}-8,9-dihydro-7H-2,7,9a-triaza-benzo[cd]azulen-6-one]
5 | 5.3 nM | CC(C)CC(c1ccc(-c2nc3cccc4c3n2CCNC4=O)cc1)N1CCCC1 (centres unmarked) [Example 230, 1-[4-(3-Methyl-1-pyrrolidin-1-yl-butyl)-phenyl]-8,9-dihydro-7H-2,7,9a-triaza-benzo[cd]azulen-6-one]
6 | 6.9 nM | CC(C)CC(c1ccc(-c2nc3cccc4c3n2CCNC4=O)cc1)N(C)C (centres unmarked) [Example 231, 1-[4-(Dimethylamino-methyl-butyl)-phenyl]-8,9-dihydro-7H-2,7,9a-triaza-benzo[cd]azulen-6-one]
7 | 8.7 nM | C[C@H]1Cn2c(-c3ccc(Cn4cccc4)cc3)nc3cccc(c32)C(=O)N1 [Example 234, (S)-8-Methyl-1-(4-pyrrol-1-ylmethyl-phenyl)-8,9-dihydro-7H -2,7,9a-triaza-benzo[cd]azulen-6-one]
8 | 113 nM | C[C@@H]1Cn2c(-c3ccc(Cl)cc3)nc3cccc(c32)C(=O)N1 [Example 236, (R)-1-(4-Chloro-phenyl)-8-methyl-8,9-dihydro-7H-2,7,9a-triaza-benzo[cd]azulen-6-one]
9 | 5 nM and 6 nM | O=C1N[C@@H](CO)Cn2c(-c3ccc(Cl)cc3)nc3cccc1c32 [Example 237, (R)-1-(4-Chloro-phenyl)-8-hydroxymethyl-8,9-dihydro-7H-2,7,9a-triaza-benzo[cd]azulen-6-one]
10 | 30 nM | O=C1N[C@@H](COCc2ccccc2)Cn2c(-c3ccc(Cl)cc3)nc3cccc1c32 [Example 237b, (R)-8-Benzyloxymethyl-1-(4-chloro-phenyl)-8,9-dihydro-7H-2,7,9a-triaza-benzo[cd]azulen-6-one]
11 | 7.3 nM | CN(C)Cc1ccc(-c2nc3cccc4c3n2C[C@H](CO)NC4=O)cc1 [Example 238, (R)-1-(4-Dimethylaminomethyl-phenyl)-8-hydroxymethyl-8,9-dihydro-7H-2,7,9a-triaza-benzo[cd]azulen-6-one]
12 | 30.7 nM | O=C1N[C@@H](COCc2ccccc2)Cn2c(-c3ccc(CO)cc3)nc3cccc1c32 [Example 238a, (R)-8-Benzyloxymethyl-1-(4-hydroxymethyl-phenyl)-8,9-dihydro-7H-2,7,9a-triaza-benzo[cd]azulen-6-one]
13 | 7.8 nM | CN(CCc1ccccc1)Cc1ccc(-c2nc3cccc4c3n2C[C@H](CO)NC4=O)cc1 [Example 239, (R)-8-Hydroxymethyl-1-{4-[(methyl-phenethyl-amino)-methyl]-phenyl}-8,9-dihydro-7H-2,7,9a-triaza-benzo[cd]azulen-6-one]
14 | 4.2 nM and 4.5 nM | CNCc1ccc(-c2nc3cccc4c3n2C[C@H](CO)NC4=O)cc1 [Example 240, (R)-8-Hydroxymethyl-1-(4-methylaminomethyl-phenyl)-8,9-dihydro-7H-2,7,9a-triaza-benzo[cd]azulen-6-one]
15 | 6.8 nM | O=C1N[C@@H](CO)Cn2c(-c3ccc(CN4CCCC4)cc3)nc3cccc1c32 [Example 241, (R)-8-Hydroxymethyl-1-(4-pyrrolidin-1-ylmethyl-phenyl)-8,9-dihydro-7H-2,7,9a-triaza-benzo[cd]azulen-6-one]
16 | 3.4 nM | N#CCc1ccc(-c2nc3cccc4c3n2CCNC4=O)cc1 [Example 242, [4-(6-oxo-6,7,8,9-Tetrahydro-2,7,9a-triaza-benzo[cd]azulen-1-yl)-phenyl]-acetonitrile]
17 | 14 nM | Cc1ccc(C)n1Cc1ccc(-c2nc3cccc4c3n2CCNC4=O)cc1 [Example 244, 1-[4-(2,5-Dimethyl-pyrrol-1-ylmethyl)-phenyl]-8,9-dihydro-7H-2,7,9a-triaza-benzo[cd]azulen-6-one]
18 | 5.2 nM and 5.3 nM | CC(O)c1ccc(-c2nc3cccc4c3n2CCNC4=O)cc1 (centres unmarked) [Example 245a, 1-[4-(1-Hydroxy-ethyl)-phenyl]-8,9-dihydro-7H-2,7,9a-triaza-benzo[cd]azulen-6-one]
19 | 5.4 nM | O=C1NCCn2c(-c3ccc(C(Cc4ccccc4)N4CCCC4)cc3)nc3cccc1c32 (centres unmarked) [Example 247, 1-[4-(2-Phenyl-1-pyrrolidin-1-yl-ethyl)-phenyl]-8,9-dihydro-7H-2,7,9a-triaza-benzo[cd]azulen-6-one]
20 | 10 nM | O=C1NCCn2c(-c3ccc(C(O)Cc4ccccc4)cc3)nc3cccc1c32 (centres unmarked) [Example 247a, 1-[4-(1-Hydroxy-2-phenyl-ethyl)-phenyl]-8,9-dihydro-7H-2,7,9a-triaza-benzo[cd]azulen-6-one]

Second part, the molecule before the results:

Row | SMILES | Ki
21 | O=C1NCCn2c(-c3ccc(CN4CCc5ccccc5C4)cc3)nc3cccc1c32 [Example 198, 1-[4-(3,4-Dihydro-1H-isoquinolin-2-ylmethyl)-phenyl]-8,9-dihydro-7H-2,7,9a-triaza-benzo[cd]azulen-6-one] | 7.9 nM
22 | CN(Cc1ccccc1)Cc1ccc(-c2nc3cccc4c3n2CCNC4=O)cc1 [Example 199, 1-[4-(Benzyl-methyl-amino-methyl)-phenyl]-8,9-dihydro-7H-2,7,9a-triaza-benzo[cd]azulen-6-one] | 6.8 nM
23 | CC(CNCc1ccc(-c2nc3cccc4c3n2CCNC4=O)cc1)c1ccccc1 (centres unmarked) [Example 200, 1-{4-[(2-Phenyl-propylamino)-methyl]-phenyl}-8,9-dihydro-7H-2,7,9a-triaza-benzo[cd]azulen-6-one] | 6 nM
24 | O=C1NCCn2c(-c3ccc(CNCCCc4ccccc4)cc3)nc3cccc1c32 [Example 201, 1-{4-[(3-Phenyl-propylamino)-methyl]-phenyl}-8,9-dihydro-7H-2,7,9a-triaza-benzo[cd]azulen-6-one] | 5.8 nM
25 | CN(CCc1ccccn1)Cc1ccc(-c2nc3cccc4c3n2CCNC4=O)cc1 [Example 202, 1-(4-{[Methyl-(2-pyridin-2-yl-ethyl)-amino]-methyl}-phenyl)-8,9-dihydro-7H-2,7,9a-triaza-benzo[cd]azulen-6-one] | 3.2 nM
26 | O=C1NCCn2c(-c3ccc(CNCCc4ccccn4)cc3)nc3cccc1c32 [Example 204, 1-{4-[(2-Pyridin-2-yl-ethylamino)-methyl]-phenyl}-8,9-dihydro-7H-2,7,9a-triaza-benzo[cd]azulen-6-one] | 7.9 nM
27 | CN(CCc1ccncc1)Cc1ccc(-c2nc3cccc4c3n2CCNC4=O)cc1 [Example 205, 1-(4-{[Methyl-(2-pyridin-4-yl-ethyl)-amino]-methyl}-phenyl)-8,9-dihydro-7H-2,7,9a-triaza-benzo[cd]azulen-6-one] | 4.7 nM
28 | O=C1NCCn2c(-c3ccc(CNCCc4ccncc4)cc3)nc3cccc1c32 [Example 206, 1-{4-[(2-Pyridin-4-yl-ethylamino)-methyl]-phenyl}-8,9-dihydro-7H-2,7,9a-triaza-benzo[cd]azulen-6-one] | 6.4 nM
29 | O=C1NCCn2c(-c3ccc(Cn4ccnc4)cc3)nc3cccc1c32 [Example 213, 1-(4-Imidazol-1-ylmethyl-phenyl)-8,9-dihydro-7H-2,7,9a-triaza-benzo[cd]azulen-6-one] | 7.4 nM
30 | CC1CCC(C)N1Cc1ccc(-c2nc3cccc4c3n2CCNC4=O)cc1 (centres unmarked) [Example 214, 1-[4-(2,5-Dimethyl-pyrrolidin-1-ylmethyl)-phenyl]-8,9-dihydro-7H-2,7,9a-triaza-benzo[cd]azulen-6-one] | 8.3 nM
31 | CC1(C)CC2CC(C)(CN2Cc2ccc(-c3nc4cccc5c4n3CCNC5=O)cc2)C1 (centres unmarked) [Example 215, 1-[4-(1,3,3-Trimethyl-6-aza-bicyclo[3.2.1]oct-6-ylmethyl)-phenyl]-8,9-dihydro-7H-2,7,9a-triaza-benzo[cd]azulen-6-one] | 11 nM
32 | COC[C@@H]1CC[C@@H](COC)N1Cc1ccc(-c2nc3cccc4c3n2CCNC4=O)cc1 [Example 216, 1-[4-((2S,5S)-2,5-bis-Methoxymethyl-pyrrolidin-1-ylmethyl)-phenyl]-8,9-dihydro-7H-2,7,9a-triaza-benzo[cd]azulen-6-one] | 27 nM
33 | O=C1NCCn2c(-c3ccc(CN4CCC[C@@H]4C(=O)OCc4ccccc4)cc3)nc3cccc1c32 [Example 217, (R)-1-[4-(6-oxo-6,7,8,9-Tetrahydro-2,7,9a-triaza-benzo[cd]azulen-1-yl)-benzyl]-pyrrolidine-2-carboxylic Acid Benzyl Ester] | 26 nM
34 | CC(C)(C)OC(=O)[C@H]1CCCN1Cc1ccc(-c2nc3cccc4c3n2CCNC4=O)cc1 [Example 218, (R)-1-[4-(6-oxo-6,7,8,9-Tetrahydro-2,7,9a-triaza-benzo[cd]azulen-1-yl)-benzyl]-pyrrolidine-2-carboxylic Acid tert-Butyl Ester] | 17 nM
35 | CC(C)(C)OC(=O)NC1CCN(Cc2ccc(-c3nc4cccc5c4n3CCNC5=O)cc2)C1 (centres unmarked) [Example 219, {1-[4-(6-oxo-6,7,8,9-Tetrahydro-2,7,9a-triaza-benzo[cd]azulen-1-yl)-benzyl]-pyrrolidin-3-yl}-carbamic Acid tert-Butyl Ester] | 11 nM
36 | O=C1NCCn2c(-c3ccc(Cn4cccc4)cc3)nc3cccc1c32 [Example 220, 1-(4-Pyrrol-1-ylmethyl-phenyl)-8,9-dihydro-7H-2,7,9a-triaza-benzo[cd]azulen-6-one] | 4 nM
37 | C[C@H]1Cn2c(-c3ccc(CN(C)C)cc3)nc3cccc(c32)C(=O)N1 [Example 221, (S)-1-(4-Dimethylaminomethyl-phenyl)-8-methyl-8,9-dihydro-7H-2,7,9a-triaza-benzo[cd]azulen-6-one] | 5 nM
38 | C[C@H]1Cn2c(-c3ccc(CO)cc3)nc3cccc(c32)C(=O)N1 [Example 221a, (S)-1-(4-Hydroxymethyl-phenyl)-8-methyl-8,9-dihydro-7H-2,7,9a-triaza-benzo[cd]azulen-6-one] | 10 nM

From US6548494B1, “Tricyclic inhibitors of poly(ADP-ribose) polymerases” (Agouron Pharmaceuticals, Inc., priority 1999, dated 2003)
